From patent US20050271588A1, “Liposome targeting of matrix metalloproteinase inhibitors” (priority 2001, published 2005)
Positions of bridges follow the written chain, without caps; N, C: chain ends. Residues, ends and D or L forms follow the SMILES beside them.

What was measured:
MMP-9 = target: T1, MMP-9 (Homo sapiens, UniProt P14780); assay: Gelatinase assay with fluorogenic peptide substrate; type: biochemical; settings: fluorogenic substrate; text says 8 μM 'in both assays'; liposomes 200 μM POPC/POPE
T1 construct: made in house
Procedure: The activity of MMP-9 was measured also using the fluorogenic peptide substrate MCA-Pro-Leu-Ala-Nva-Dpa-Ala-Arg (Calbiochem, San Diego, Calif., USA). More specifically, 50 ng of MMP-9 was preincubated in PBS for 30 min at RT in the absence or presence of CTT or its liposome complex. Subsequently, the fluorogenic substrate was added to a final concentration of 0.1 mM and the incubation was continued at 37° C. for 15 min, whereafter fluorescence intensities were measured with exitation at 340 nm and emission at 390 nm in a microtiter plate reader.

[1] = Penetration of peptides into lipid monolayers (surface pressure); type: physicochemical; settings: eggPC monolayer, peptide 200 μM
Procedure: Interaction of peptides with lipid monolayers. Penetration of peptides into mono-molecular lipid films was measured using magnetically stirred circular wells (subphase volume 400 μl). Surface pressure (π) was monitored with a Wilhelmy wire attached to a microbalance (μ TroughS, Kibron Inc., Helsinki, Finland) connected to a Pentium PC. Lipids were spread on the air-buffer (PBS, pH 7) interface in chloroform (approx. one mg/ml) to different initial surface pressures (π0) and were allowed to equilibrate for 15 min before the addition of the indicated peptides (4 μ1,10 mg/ml in H2O and CWL in DMSO) into the subphase. The increment in π from the initial surface pressures (π0) after the addition of peptide was complete in approximately 20 min and the difference between π0 and the value observed after binding of the peptide into the film was taken as Δπ. All measurements were performed at ambient temperature (˜+24° C.). The data are represented as Δπ vs. […] (Brockman, 1999).

[2] = test system: HT1080 fibrosarcoma cells; assay: Uptake of liposome-encapsulated rhodamine B by HT1080 cells; type: cell-based, human; settings: for Enhanced liposome uptake: HT1080
Procedure: In another series of experiments the water-soluble fluorescent marker rhodamine B was encapsulated into liposomes and its uptake by cells was measured. Samples for rhodamine B uptake were prepared by mixing 60 μl of POPC/POPE (80/20, mol/mol, one mM) liposomes containing 10 μM rhodamine B to 300 μl of DMEM medium supplemented with 10% fetal bovine serum, Glutamax I, penicillin 100 U/ml and streptomycin 0.1 mg/ml. Peptides were then added to obtain a final concentration of […]. Ten μl (10^5 cells) of medium containing the indicated cells were combined with the LUVs. After an incubation for 15 min at 37° C. or +4° C. liposomes not bound to the cells were removed from 96-well plates by rinsing three times with cold PBS. The +4° C. temperature served as a control for non-endocytotic liposome uptake by cells (Oess and Hildt, 2000). The relative amount of rhodamine B associated with the cells was determined using microplate reader with excitation at 535 nm and emission at 595 nm.
We also preincubated cells with phorbol ester (TPA) (50 nM). Preincubation times varied from 15 to 75 min. Treatment of cells by phorbol ester (TPA) increases both expression and secretion of MMP-9 (Toth et al., 1997). Results are presented as RFI=I/I0, where RFI is relative fluorescence intensity, I0 is the emission intensity for the control, 2 μM rhodamine B in LUVs without the peptides, and I is the rhodamine emission for the peptide-liposome complexes taken up by the cells. […] M-17 inhibits the binding of MMP-9 to the substrate and this inhibition is expected to be concentration dependent. […]
Cell cultures and fluorescence microscopy. […] Uptake of rhodamine B containing liposomes by the cultured cells was verified by fluorescence microscopy. An inverted fluorescence microscope (Zeiss IM 35) equipped with Nikon extra long working distance objectives (20×) and (40×) were used. […] Fluorescence images were viewed with a Peltier-cooled digital camera (C4742-95, Hamamatsu, Japan) connected to a computer and operated by software (Hipic 5.0) provided by the instrument manufacturer.

[3] = Trp fluorescence emission anisotropy with liposomes; type: physicochemical; settings: 37° C.
Procedure: Fluorescence polarization of the Trp residue of CTT as a function of increasing concentration of liposomes was measured using rotating polarizers in the excitation and emission beams, with a bandpass of 10 nm. The results are expressed as emission anisotropy (Lakowicz, 1999) calculated as follows: r=(I∥−I⊥)/(I∥+2I⊥). In this equation I⊥ and I∥ represent the emission intensity perpendicular and parallel, respectively, to the excitation polarizer.

MMP-2 and MMP-9 = settings: cited from earlier work

T1 sequence (P14780 94-707): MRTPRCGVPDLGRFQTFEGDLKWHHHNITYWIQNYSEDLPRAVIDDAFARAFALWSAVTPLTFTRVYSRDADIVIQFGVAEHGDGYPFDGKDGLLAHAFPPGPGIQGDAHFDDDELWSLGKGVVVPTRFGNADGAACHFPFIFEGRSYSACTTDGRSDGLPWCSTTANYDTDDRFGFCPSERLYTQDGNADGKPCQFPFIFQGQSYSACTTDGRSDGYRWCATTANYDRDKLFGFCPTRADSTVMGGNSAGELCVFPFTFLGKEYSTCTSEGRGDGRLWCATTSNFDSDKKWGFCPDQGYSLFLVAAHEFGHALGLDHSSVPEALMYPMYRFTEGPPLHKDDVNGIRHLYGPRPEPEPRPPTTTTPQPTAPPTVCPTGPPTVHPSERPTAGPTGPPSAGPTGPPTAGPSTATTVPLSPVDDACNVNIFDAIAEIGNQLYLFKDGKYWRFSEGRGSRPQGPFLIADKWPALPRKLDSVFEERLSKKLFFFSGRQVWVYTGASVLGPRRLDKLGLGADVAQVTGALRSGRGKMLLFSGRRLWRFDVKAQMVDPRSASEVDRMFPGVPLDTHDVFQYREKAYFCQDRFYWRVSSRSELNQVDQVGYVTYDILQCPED

In the case of CC(C)C[C@@H]1NC(=O)[C@H]([C@@H](C)O)NC(=O)[C@H](Cc2ccccc2)NC(=O)CNC(=O)[C@H](Cc2c[nH]c3ccccc23)NC(=O)[C@H](Cc2c[nH]cn2)NC(=O)[C@H]([C@@H](C)O)NC(=O)[C@H]([C@@H](C)O)NC(=O)[C@@H](N)CSSC[C@@H](C(=O)O)NC1=O [CTT] (H-CTTHWGFTLC-OH; disulfide 1-10; N-terminus and C-terminus assumed), the IC50 (MMP-9) is reported as 8 µM, the “Initial monolayer packing pressure above which membrane penetration was abolished” value [1] is reported as 38 mN/m and the Enhanced liposome uptake ([2]; 4° C.) is reported as “not at 4 °C”. The Enhanced liposome uptake ([2]; 37° C.) was “evident only at 37 °C”, the “Rhodamine intake, fluorescence microscopy” value ([2]; HT 1080, liposomes with vs without CTT) was “enhanced” and the “Trp emission anisotropy r” value ([3]; 230 μM phospholipid, CTT 5 μM) was 0.349. For the same compound, the “Trp emission anisotropy r” value ([3]; absence of liposomes, CTT 5 μM in PBS) was 0.065 and the “Selective inhibition of MMP family members” value (MMP-2 and MMP-9) was “selectively inhibit the activity of MMP-2 and MMP-9”.
